Entries after “also recorded” stand apart in the source; their conditions may differ. Like-named read-outs stand apart in the source and are kept apart here.
Legend:
[1] = test system: human macrophages differentiated from THP-1 monocytic cell lines; assay: Fibrillar Aβ clearance by THP-1 macrophages; type: cell-based; conditions: 24 h, 2, 5, or 10 μM
Protocol: SRI-011381 promotes Aβ clearance in cell culture: TGF-β1 promotes Aβ clearance in a microglia cell line. To test whether SRI-011381 has similar properties, mouse J774A.1 macrophages and human macrophages differentiated from THP-1 monocytic cell lines were treated with fibrillar Aβ in the absence or presence of compound (2, 5, or 10 μM) for 24 h. Conditioned medium was harvested and the remaining Aβ that was not phagocytosed by macrophages was quantified by Aβ ELISA.
(§1) FIGS. 4A and 4B present data from experiments in which human macrophages differentiated from THP-1 monocytic cell lines and mouse J774A.1 macrophages were incubated with fibrillar Aβ in the absence or presence of compound (2 or 5 μM) for 24 h. Conditioned medium was harvested and the remaining Aβ was quantified by Aβ ELISA. The collected medium (FIGS. 4C-4D) was added to N2A-APP-Swe cells (mouse Neuro-2A neuroblastoma cells stably expressing Swedish APP695) and incubated for 24 h. Neurotoxicity was quantified by an MTS Assay.
Mouse J774A.1 macrophages and human macrophages that were differentiated from THP-1 monocytic cell lines were treated with fibrillar Aβ42 in the absence or presence of SRI-011382 or its derivative compounds (2, 5, or 10 μM) for 24 h. Conditioned medium was harvested and the remaining Aβ42 that was not phagocytosed by macrophages was quantified by Aβ42 ELISA kit (Invitrogen). […]

[2] = PAMPA double sink permeability assay; type: in vitro ADME; conditions: pH 7.4, 6.2, 5.0, read-out: sum of the permeability coefficients (Pe)
Protocol: Permeability Assays: PAMPA screens, both for absorption from the gut and through blood brain barrier, were used as a first tier screen for this program. SRI-011381 was evaluated in the double sink assay format and the sum of the permeability coefficients at three pH values (7.4, 6.2, 5.0) was calculated (Pe) to be 781×10^−6 cm/s, which is consistent with an orally available compound.
Permeability PAMPA: The PAMPA assay was used to predict oral bioavailability of compounds. The PAMPA determines the permeability of compounds across a biological membrane using a synthetic lipid membrane and detection by UV absorbance. […] The PAMPA-BBB assay was performed, to predict permeability to the blood brain barrier, as an aqueous assay and as a co-solvent assay. In this assay the composition of the lipid membrane included brain-derived lipids, mimicking the BBB membrane.

FvB wildtype mice = type: in vivo
Protocol: Excitotoxic injury model: Mice are injured with kainic acid and treated with different test compounds at two concentrations each to determine if they can reduce neurodegeneration and/or microglial activation. Wildtype mice on the FVB/N genetic background (8-weeks-old) are typically injured with kainic acid (Tocris, Ellisville, Mo.) dissolved in PBS and injected subcutaneously (s.q., 20 mg/kg). Seizure activity is scored from 0 to 5, with 0 corresponding to no behavioral changes and 5 corresponding to constant rearing and falling. Only kainate-injected mice reaching at least stage 3 are used for the studies. On day 5 following injury, mice are anesthetized, transcardially perfused with 0.9% saline, and brains harvested and dissected. One hemi-brain may be fixed for 24 hours in 4% paraformaldehyde and cryoprotected in 30% sucrose. Serial coronal sections (40 μm) can be cut with a freezing microtome (Leica, Allendale, N.J.) and stored in cryoprotective medium. One set of sections, representing different levels of the hippocampus, is used for the various stains. The other hemi-brain is dissected into hippocampus, cortex, thalamus, brain stem, and cerebellum. In this manner, the ability of test compounds to reduce neurodegeneration in kainate-injected mice can be assayed.
SRI-011381 is neuroprotective in a model of acute neurodegeneration: To study the potential neuroprotective effect of SRI-011381 in vivo, FvB wildtype mice were pre-treated with compound or vehicle for 3 days before excitotoxic injury was induced with kainic acid (10 mg/kg, SQ). Mice continued to receive daily injections of compound until they were sacrificed at day 5 after kainic acid injury. Brains were removed, fixed with paraformaldehyde, sectioned into […] sections using a cryomicrotome and stained with cresyl violet, or immunohistochemical methods. Sections for analysis of synaptophysin, MAP2, and NeuN were subjected to blinded confocal quantitative analysis of neurodegeneration.
To study the potential neuroprotective effect of SRI-011381, FvB wild-type mice were pre-treated with compound or vehicle for 3 days before excitotoxic injury was induced with kainic acid (10 mg/kg). Mice continued to receive daily injections of compound until they were sacrificed at day 5 after kainic acid injury. Kainic acid treatment alone caused a roughly 50% lethality in this experiment (lethality greatly varies in this model and is very difficult to control, but survivors from experiments with greater than 25% lethality typically show significant neurodegeneration in the hippocampus).
Brains were removed, fixed with paraformaldehyde, sectioned into […] sections using a cryomicrotome and stained with cresyl violet, or immunohistochemical methods. Sections were analyzed for synaptophysin, MAP2, and NeuN by confocal quantitative analysis of neurodegeneration. All observers were completely blinded to the treatment conditions of the mice.

N2A-APP-Swe cells = assay: Neurotoxicity of macrophage-conditioned medium (MTS assay); type: cell-based, mouse
Protocol: as §1
Mouse J774A.1 macrophages and human macrophages that were differentiated from THP-1 monocytic cell lines were treated with fibrillar Aβ42 in the absence or presence of SRI-011382 or its derivative compounds (2, 5, or 10 μM) for 24 h. Conditioned medium was harvested and the remaining Aβ42 that was not phagocytosed by macrophages was quantified by Aβ42 ELISA kit (Invitrogen). Data was normalized to control medium containing the input amount of Aβ42. Neurotoxicity induced by fibrillar Aβ42 in the conditioned medium was then assessed by incubating Neuro-2a neuroblastoma cells with conditioned medium for 24 h followed by MTS-based viability assay. Data was normalized to control cells without fibrillar Aβ42 treatment.

Sprague Dawley rats = assay: 7-Day oral gavage dose range finding and toxicokinetic study in rats; type: in vivo
Protocol: 7-Day oral gavage dose range finding and toxicokinetic study of SRI-011381 in male and female Sprague Dawley rats: The objective of this study was to determine maximum tolerated dose (MTD), characterize the potential toxicity, and estimate the dose dependence of exposure to SRI-011381 in adult male and female Sprague Dawley rats following daily oral gavage (po) dose administration for 7 consecutive days. The doses studied were 2, 10, and 50 mg/kg, formulated in 15% Solutol/85% sterile water and administered in the volume of 10 ml/kg.
Species and Strain: Sprague Dawley rat; Route of Administration: Oral (po); Frequency: Daily administration for 7 consecutive days; Dosing Volume: 10 ml/kg; Dose volumes will be calculated based on the animal's most recent body weight; Duration of In-life Phase: 8 days; Endpoints: clinical observations, mortality, body weights, clinical chemistry, hematology, gross pathology, organ weights, histopathology, toxicokinetics.

[3] = one third of maximum tolerated dose
[4] = po 2, 10, 50 mg/kg daily for 7 days

Question: Which “fibrillar Aβ clearance” value [1] does the source give for O=C(NC1CCCCC1)N(Cc1ccccc1)CC1CCNCC1 [SRI-011381, 1-Benzyl-3-cyclohexyl-1-(piperidin-4-ylmethyl)urea] here?
Answer: promoted fibrillar Aβ clearance; also recorded: promoted fibrillar Aβ42 clearance

Question: What about the “fibrillar Aβ clearance” value ([1]; listed as SRI-11381) of the same compound?
Answer: promote fibrillar Aβ42 clearance

Question: And the Papp [2]?
Answer: 781 ×10⁻⁶ cm/s

Question: What about the “lethality after kainic acid” value (FvB wildtype mice; 10 mg/kg daily) of the same compound?
Answer: significant reduction in lethality

Question: What about the calbindin loss reduced (FvB wildtype mice; kainic acid 10 mg/kg, day 5) of the same compound?
Answer: 30%

Question: What about the “neuronal damage reversed or prevented, all neuronal markers” value (FvB wildtype mice; kainic acid 10 mg/kg, day 5) of the same compound?
Answer: at least 30%

Question: What about the “reduction of CD68 expression” value (FvB wildtype mice; kainic acid 10 mg/kg, day 5) of the same compound?
Answer: more than 20%

Question: What about the “lethality after kainic acid” value (FvB wildtype mice; mouse, in vivo, 60 mg/kg) of the same compound?
Answer: increase in lethality

Question: And the “pathology reduced: Cresyl violet” value (FvB wildtype mice; [3])?
Answer: 54.0%

Question: And the “pathology reduced: D68” value (FvB wildtype mice; [3])?
Answer: 22.5%

Question: What about the “pathology reduced: MAP-2” value (FvB wildtype mice; [3]) of the same compound?
Answer: 37.4%

Question: What about the “pathology reduced: NeuN” value (FvB wildtype mice; [3]) of the same compound?
Answer: 36.9%

Question: And the “pathology reduced: Synaptophysin” value (FvB wildtype mice; [3])?
Answer: 67.5%

Question: What about the “neurodegeneration (percentage of rescue)” value (FvB wildtype mice; systemic administration) of the same compound?
Answer: reduces neurodegeneration by 6 markers

Question: And the “fibrillar Aβ42-induced neurotoxicity” value (N2A-APP-Swe cells; medium conditioned by J774A.1 macrophages)?
Answer: protect human neuronal cells from fibrillar Aβ42-induced neurotoxicity

Question: What about the “fibrillar Aβ42-induced neurotoxicity” value (N2A-APP-Swe cells; medium conditioned by THP-1 macrophages) of the same compound?
Answer: protect human neuronal cells from fibrillar Aβ42-induced neurotoxicity

Question: What about the LDH (Sprague Dawley rats; high dose group (50 mg/kg)) of the same compound?
Answer: significantly lower in male rats of the high dose group

Question: And the “gender related differences in exposure” value (Sprague Dawley rats; male and female rats)?
Answer: nor were gender related differences observed

Question: And the “exposure after 7 doses compared to the first dose” value (Sprague Dawley rats; po 2, 10, 50 mg/kg)?
Answer: no apparent change in exposure

Question: And the “alkaline phosphatase (ALP) levels” value (Sprague Dawley rats; [4])?
Answer: significantly elevated in all treatment groups in the female rats, though not in males

Question: And the body weight (Sprague Dawley rats; [4])?
Answer: no statistically significant differences in body weight

Question: What about the clinical observations (Sprague Dawley rats; [4]) of the same compound?
Answer: appeared normal

Question: What about the hematology parameters (Sprague Dawley rats; [4]) of the same compound?
Answer: no significant changes in any hematology parameters

Question: And the “exposure based on plasma collected 1 h after dose” value (Sprague Dawley rats; po 2, 10, 50 mg/kg, Day 1 and 7)?
Answer: increased in a dose dependent fashion

— US9796674B2, “Benzyl urea derivatives for activating TGF-beta signaling” (THE BOARD OF TRUSTEES OF THE LELAND STANFORD JUNIOR …, priority 2013, dated 2017)
